Test results reported in US11208412B2 (DAEGU-GYEONGBUK MEDICAL INNOVATION FOUNDATION, priority 2017, dated 2021).

Legend:
Assay in all cases: Kinase selectivity, DiscoverX scanMAX Kinase assay panel (% control)
Assay type in all cases: binding
[1] = target: T1, kinases of the scanMAX Kinase assay panel (Homo sapiens, UniProt P49137); conditions: MAPKAPK2; 1 uM
T1 construct: purchased DiscoverX Co. (contract measurement) scanMAX Kinase assay panel
Summary of the method: (§1)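 Single-point screen, 1 uM cpd in DMSO. % ctrl = (cpd − pos ctrl)/(neg ctrl − pos ctrl)×100; pos ctrl = 0%, DMSO neg ctrl = 100%. Hit cutoff <35%.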

[2] = target: T2, kinases of the scanMAX Kinase assay panel (Homo sapiens, UniProt P49759); conditions: CLK1; 1 uM
T2 construct: purchased DiscoverX Co. (contract measurement) scanMAX Kinase assay panel
Summary of the method: as §1

[3] = target: T3, kinases of the scanMAX Kinase assay panel (Homo sapiens, UniProt Q96J92); conditions: kinase WNK4; 1 uM in DMSO
T3 construct: purchased DiscoverX Co. (contract measurement) scanMAX Kinase assay panel
Summary of the method: as §1

[4] = target: T4, kinases of the scanMAX Kinase assay panel (Homo sapiens, UniProt Q14012); conditions: CAMK1; 1 uM
T4 construct: purchased DiscoverX Co. (contract measurement) scanMAX Kinase assay panel
Summary of the method: as §1

[5] = target: T5, kinases of the scanMAX Kinase assay panel (Homo sapiens, UniProt Q9H422); conditions: HIPK3; 1 uM
T5 construct: purchased DiscoverX Co. (contract measurement) scanMAX Kinase assay panel
Summary of the method: as §1

[6] = target: T6, kinases of the scanMAX Kinase assay panel (Homo sapiens, UniProt P36888, N841I); conditions: FLT3(N841I); 1 uM
T6 construct: purchased DiscoverX Co. (contract measurement) scanMAX Kinase assay panel
T6 sequence (P36888 27-993 N841I): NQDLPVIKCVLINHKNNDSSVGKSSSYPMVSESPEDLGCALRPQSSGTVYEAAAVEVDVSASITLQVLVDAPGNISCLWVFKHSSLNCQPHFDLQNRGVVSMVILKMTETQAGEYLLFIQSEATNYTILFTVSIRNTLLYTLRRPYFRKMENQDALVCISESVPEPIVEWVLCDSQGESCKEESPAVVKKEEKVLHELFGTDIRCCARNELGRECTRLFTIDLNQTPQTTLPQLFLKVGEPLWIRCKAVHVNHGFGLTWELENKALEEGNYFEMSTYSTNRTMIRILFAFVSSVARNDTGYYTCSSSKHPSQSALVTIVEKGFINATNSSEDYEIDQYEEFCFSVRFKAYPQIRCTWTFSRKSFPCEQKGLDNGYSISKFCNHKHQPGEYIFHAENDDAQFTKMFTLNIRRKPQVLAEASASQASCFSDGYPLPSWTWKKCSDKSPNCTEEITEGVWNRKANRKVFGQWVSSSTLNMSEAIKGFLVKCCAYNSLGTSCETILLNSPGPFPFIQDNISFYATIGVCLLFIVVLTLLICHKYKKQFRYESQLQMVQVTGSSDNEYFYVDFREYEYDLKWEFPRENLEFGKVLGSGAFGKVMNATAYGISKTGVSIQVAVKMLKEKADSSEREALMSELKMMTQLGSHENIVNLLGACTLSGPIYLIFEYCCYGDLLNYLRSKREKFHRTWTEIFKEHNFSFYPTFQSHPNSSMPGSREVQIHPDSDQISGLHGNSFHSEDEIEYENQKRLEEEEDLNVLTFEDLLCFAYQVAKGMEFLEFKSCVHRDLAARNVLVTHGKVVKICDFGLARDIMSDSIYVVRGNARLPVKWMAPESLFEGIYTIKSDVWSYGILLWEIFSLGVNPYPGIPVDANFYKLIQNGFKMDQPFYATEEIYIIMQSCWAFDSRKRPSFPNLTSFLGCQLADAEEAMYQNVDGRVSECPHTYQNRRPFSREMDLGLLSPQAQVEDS
Summary of the method: as §1

[7] = target: T7, kinases of the scanMAX Kinase assay panel (Homo sapiens, UniProt P42336, Q546K); conditions: PIK3CA(Q546K); 1 uM
T7 construct: purchased DiscoverX Co. (contract measurement) scanMAX Kinase assay panel
Summary of the method: as §1

[8] = target: T8, kinases of the scanMAX Kinase assay panel (Homo sapiens, UniProt P21127); conditions: CDC2L1; 1 uM
T8 construct: purchased DiscoverX Co. (contract measurement) scanMAX Kinase assay panel
Summary of the method: as §1

[9] = target: T9, kinases of the scanMAX Kinase assay panel (Homo sapiens, UniProt P30291); conditions: kinase WEE1; 1 uM in DMSO
T9 construct: purchased DiscoverX Co. (contract measurement) scanMAX Kinase assay panel
Summary of the method: as §1

[10] = target: T10, kinases of the scanMAX Kinase assay panel (Homo sapiens, UniProt Q8NG66); conditions: NEK11; 1 uM
T10 construct: purchased DiscoverX Co. (contract measurement) scanMAX Kinase assay panel
T10 sequence (Q8NG66 1-645): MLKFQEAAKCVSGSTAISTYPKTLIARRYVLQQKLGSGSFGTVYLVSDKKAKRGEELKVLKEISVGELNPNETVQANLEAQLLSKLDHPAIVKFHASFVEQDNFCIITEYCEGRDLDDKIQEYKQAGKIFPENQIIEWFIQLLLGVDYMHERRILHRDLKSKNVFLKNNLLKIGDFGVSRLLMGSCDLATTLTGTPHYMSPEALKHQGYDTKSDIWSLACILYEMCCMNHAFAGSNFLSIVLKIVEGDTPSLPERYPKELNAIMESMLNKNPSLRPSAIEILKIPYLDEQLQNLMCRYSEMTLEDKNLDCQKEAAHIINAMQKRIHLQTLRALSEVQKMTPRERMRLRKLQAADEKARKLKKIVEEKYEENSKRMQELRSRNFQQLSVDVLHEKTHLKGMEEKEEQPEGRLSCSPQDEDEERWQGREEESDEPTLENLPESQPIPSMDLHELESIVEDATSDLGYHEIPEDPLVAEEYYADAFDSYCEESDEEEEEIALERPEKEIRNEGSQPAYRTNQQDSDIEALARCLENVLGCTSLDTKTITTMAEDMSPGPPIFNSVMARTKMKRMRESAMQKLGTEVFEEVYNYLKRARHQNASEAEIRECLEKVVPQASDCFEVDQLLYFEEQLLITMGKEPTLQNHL
Summary of the method: as §1

[11] = target: T11, kinases of the scanMAX Kinase assay panel (Homo sapiens, UniProt P49336); conditions: CDK8; 1 uM
T11 construct: purchased DiscoverX Co. (contract measurement) scanMAX Kinase assay panel
Summary of the method: as §1

[12] = target: T12, kinases of the scanMAX Kinase assay panel (Homo sapiens, UniProt Q96GD4); conditions: AURKB; 1 uM
T12 construct: purchased DiscoverX Co. (contract measurement) scanMAX Kinase assay panel
Summary of the method: as §1

T5 sequence (Q9H422 whole entry): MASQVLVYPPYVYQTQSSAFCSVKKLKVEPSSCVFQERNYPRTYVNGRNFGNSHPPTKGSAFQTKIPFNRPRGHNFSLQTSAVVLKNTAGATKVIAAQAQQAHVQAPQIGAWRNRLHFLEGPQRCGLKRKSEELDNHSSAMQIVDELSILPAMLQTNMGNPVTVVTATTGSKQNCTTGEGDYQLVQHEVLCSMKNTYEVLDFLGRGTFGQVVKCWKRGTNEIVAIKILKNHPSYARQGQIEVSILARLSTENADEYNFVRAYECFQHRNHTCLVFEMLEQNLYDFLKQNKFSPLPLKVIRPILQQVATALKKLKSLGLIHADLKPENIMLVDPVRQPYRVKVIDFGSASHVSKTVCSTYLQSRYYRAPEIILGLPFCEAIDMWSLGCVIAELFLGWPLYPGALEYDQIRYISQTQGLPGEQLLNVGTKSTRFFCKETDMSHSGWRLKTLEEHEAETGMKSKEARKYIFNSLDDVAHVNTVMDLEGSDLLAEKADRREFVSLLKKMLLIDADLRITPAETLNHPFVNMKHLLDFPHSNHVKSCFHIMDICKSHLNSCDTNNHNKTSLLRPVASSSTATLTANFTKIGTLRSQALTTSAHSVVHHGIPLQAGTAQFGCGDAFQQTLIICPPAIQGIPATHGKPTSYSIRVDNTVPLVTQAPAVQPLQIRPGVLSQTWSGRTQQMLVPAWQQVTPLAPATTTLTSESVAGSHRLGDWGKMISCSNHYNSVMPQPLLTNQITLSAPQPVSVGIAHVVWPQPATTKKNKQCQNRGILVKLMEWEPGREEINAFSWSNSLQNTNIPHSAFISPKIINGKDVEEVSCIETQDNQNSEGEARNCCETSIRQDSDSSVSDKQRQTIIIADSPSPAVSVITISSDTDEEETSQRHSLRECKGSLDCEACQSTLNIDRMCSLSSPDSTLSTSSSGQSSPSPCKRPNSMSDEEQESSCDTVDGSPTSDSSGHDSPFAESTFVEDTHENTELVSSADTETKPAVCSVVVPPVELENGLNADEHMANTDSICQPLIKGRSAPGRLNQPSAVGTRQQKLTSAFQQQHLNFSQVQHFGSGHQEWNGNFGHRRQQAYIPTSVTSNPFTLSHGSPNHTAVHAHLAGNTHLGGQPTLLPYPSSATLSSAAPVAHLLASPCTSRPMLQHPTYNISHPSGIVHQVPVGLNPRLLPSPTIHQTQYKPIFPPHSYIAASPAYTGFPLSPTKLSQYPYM
T3 sequence (Q96J92 whole entry): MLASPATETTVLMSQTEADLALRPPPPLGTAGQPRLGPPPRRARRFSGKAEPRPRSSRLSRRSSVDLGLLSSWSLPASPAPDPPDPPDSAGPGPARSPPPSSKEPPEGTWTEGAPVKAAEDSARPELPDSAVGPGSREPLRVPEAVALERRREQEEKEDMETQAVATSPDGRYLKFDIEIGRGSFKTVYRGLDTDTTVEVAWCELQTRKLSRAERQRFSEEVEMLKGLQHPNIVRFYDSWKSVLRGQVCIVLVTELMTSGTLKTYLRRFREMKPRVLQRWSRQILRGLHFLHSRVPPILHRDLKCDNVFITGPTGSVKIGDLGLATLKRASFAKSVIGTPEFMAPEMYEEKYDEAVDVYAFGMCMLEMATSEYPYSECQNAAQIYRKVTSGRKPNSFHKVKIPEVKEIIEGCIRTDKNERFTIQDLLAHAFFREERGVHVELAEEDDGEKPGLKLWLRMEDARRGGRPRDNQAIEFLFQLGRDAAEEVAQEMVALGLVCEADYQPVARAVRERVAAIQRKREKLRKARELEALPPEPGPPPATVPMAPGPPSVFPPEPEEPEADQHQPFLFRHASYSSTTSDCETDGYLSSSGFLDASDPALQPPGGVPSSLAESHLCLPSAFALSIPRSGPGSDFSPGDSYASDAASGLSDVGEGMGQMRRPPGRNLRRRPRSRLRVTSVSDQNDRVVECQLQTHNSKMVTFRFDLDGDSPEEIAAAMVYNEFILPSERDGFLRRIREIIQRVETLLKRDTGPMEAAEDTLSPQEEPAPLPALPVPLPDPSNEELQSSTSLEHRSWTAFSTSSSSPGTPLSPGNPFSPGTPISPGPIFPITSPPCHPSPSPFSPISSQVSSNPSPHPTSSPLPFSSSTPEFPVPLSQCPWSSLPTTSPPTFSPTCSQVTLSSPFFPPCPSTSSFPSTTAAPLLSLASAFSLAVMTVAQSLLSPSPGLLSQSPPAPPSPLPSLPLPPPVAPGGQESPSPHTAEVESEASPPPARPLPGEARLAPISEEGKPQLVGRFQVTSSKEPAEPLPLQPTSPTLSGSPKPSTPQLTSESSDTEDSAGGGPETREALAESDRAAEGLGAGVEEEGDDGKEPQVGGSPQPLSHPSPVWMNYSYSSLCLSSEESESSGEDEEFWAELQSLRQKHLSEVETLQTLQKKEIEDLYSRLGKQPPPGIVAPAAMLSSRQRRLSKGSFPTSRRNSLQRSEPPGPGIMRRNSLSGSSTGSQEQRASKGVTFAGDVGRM
T1 sequence (P49137 whole entry): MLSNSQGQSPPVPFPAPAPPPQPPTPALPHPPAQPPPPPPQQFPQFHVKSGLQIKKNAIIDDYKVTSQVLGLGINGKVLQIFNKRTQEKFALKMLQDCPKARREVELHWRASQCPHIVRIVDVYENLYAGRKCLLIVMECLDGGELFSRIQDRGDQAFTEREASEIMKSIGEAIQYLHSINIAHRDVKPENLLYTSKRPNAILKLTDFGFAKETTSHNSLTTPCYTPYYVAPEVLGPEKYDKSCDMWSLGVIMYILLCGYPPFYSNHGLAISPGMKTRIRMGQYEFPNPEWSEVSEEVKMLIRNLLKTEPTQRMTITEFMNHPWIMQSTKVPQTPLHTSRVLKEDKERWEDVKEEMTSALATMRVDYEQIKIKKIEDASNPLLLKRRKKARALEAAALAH
T2 sequence (P49759 whole entry): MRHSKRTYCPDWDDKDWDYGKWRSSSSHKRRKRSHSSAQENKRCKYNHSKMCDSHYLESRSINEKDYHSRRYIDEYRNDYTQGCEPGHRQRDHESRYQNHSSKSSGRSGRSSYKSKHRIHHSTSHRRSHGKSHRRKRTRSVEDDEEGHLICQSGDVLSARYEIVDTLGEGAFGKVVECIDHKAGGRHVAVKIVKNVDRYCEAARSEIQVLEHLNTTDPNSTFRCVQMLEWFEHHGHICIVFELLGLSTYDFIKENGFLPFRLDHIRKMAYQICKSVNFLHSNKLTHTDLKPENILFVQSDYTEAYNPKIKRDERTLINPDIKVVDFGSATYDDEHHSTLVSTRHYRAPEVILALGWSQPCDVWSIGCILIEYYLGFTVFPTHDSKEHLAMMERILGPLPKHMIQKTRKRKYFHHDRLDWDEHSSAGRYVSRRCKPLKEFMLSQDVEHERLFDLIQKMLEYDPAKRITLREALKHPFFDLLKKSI
T8 sequence (P21127 whole entry): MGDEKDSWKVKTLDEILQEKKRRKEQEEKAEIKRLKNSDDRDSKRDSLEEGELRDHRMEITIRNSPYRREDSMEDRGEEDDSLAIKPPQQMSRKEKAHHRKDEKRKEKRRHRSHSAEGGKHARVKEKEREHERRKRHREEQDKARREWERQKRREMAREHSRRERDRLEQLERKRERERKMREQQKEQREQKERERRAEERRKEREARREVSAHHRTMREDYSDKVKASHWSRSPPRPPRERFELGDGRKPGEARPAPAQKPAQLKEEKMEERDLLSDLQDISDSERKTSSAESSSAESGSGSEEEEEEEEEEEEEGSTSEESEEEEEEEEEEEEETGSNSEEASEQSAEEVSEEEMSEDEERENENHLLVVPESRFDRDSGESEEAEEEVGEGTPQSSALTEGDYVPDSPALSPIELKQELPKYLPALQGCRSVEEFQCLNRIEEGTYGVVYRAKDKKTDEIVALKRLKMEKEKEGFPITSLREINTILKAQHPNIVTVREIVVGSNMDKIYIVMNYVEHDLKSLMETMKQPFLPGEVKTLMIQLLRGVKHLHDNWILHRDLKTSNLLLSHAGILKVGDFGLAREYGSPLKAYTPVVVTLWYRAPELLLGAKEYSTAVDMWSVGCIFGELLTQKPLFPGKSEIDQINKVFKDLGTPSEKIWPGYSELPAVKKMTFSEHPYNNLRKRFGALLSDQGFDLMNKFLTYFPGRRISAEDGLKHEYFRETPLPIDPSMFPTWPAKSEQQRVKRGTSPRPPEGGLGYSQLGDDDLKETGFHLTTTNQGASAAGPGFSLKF
T12 sequence (Q96GD4 whole entry): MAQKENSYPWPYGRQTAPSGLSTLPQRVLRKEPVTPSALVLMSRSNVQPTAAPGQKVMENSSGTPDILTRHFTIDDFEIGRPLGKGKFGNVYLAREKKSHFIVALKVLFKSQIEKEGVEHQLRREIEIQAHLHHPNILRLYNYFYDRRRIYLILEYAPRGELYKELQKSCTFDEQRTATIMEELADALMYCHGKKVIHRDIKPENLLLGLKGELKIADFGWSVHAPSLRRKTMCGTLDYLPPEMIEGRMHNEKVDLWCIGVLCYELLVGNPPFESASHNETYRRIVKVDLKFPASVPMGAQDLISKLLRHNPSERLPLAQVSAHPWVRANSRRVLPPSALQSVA
T11 sequence (P49336 whole entry): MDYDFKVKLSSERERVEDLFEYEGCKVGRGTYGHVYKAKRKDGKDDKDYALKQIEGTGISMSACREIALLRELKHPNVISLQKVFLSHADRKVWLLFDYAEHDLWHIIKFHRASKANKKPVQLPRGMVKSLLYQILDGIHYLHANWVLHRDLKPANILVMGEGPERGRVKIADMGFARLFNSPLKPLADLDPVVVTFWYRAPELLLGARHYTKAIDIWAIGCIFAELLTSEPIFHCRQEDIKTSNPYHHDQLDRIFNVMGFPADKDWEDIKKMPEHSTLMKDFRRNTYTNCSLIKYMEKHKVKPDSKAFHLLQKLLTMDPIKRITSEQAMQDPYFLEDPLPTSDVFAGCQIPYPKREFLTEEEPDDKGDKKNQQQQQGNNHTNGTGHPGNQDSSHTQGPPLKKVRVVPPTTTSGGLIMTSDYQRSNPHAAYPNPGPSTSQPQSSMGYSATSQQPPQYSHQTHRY

Compound `CNc1nc(Nc2ccc(C(=O)N3CCOCC3)cc2OC)nc2[nH]cc(C#N)c12` [Example 1, 2-((2-methoxy-4-(morpholine-4-carbonyl)phenyl)amino)-4-(methylamino)-7H-pyrrolo[2,3-d]pyrimidine-5-carbonitrile] has a remaining binding at 1 µM [1] of 4.6%, a remaining binding at 1 µM [2] of 1.8% and a remaining binding at 1 µM [3] of 81%. The remaining binding at 1 µM [4] was 59%, the remaining binding at 1 µM [5] was 64% and the remaining binding at 1 µM [6] was 90%. For the same compound, the remaining binding at 1 µM [7] was 75%, the remaining binding at 1 µM [8] was 100% and the remaining binding at 1 µM [9] was 78%. It also gave a remaining binding at 1 µM [10] of 70%, a remaining binding at 1 µM [11] of 100% and a remaining binding at 1 µM [12] of 73%.
Compound `CC1(Nc2nc(Nc3cnn([C@H]4CCN(C5COC5)C[C@@H]4F)c3Cl)nc3[nH]cc(C#N)c23)CC1` [Example 52, 2-((5-chloro-1-((3S,4S)-3-fluoro-1-(oxetane-3-yl)piperidine-4-yl)-1H-pyrazole-4-yl)amino)((1-methylcyclopropyl)amino)-7H-pyrrolo[2,3-d]pyrimidine-5-carbonitrile] has a remaining binding at 1 µM [1] of 70%, a remaining binding at 1 µM [2] of 0.6% and a remaining binding at 1 µM [3] of 100%. For the same compound, the remaining binding at 1 µM [4] was 6.8%, the remaining binding at 1 µM [5] was 6.2% and the remaining binding at 1 µM [6] was 0%. The remaining binding at 1 µM [7] was 85%, the remaining binding at 1 µM [8] was 84% and the remaining binding at 1 µM [9] was 100%. It also gave a remaining binding at 1 µM [10] of 100%, a remaining binding at 1 µM [11] of 76% and a remaining binding at 1 µM [12] of 14%.
`CCNc1nc(Nc2ccc(C(=O)N3CCC(N4CCOCC4)CC3)cc2OC)nc2[nH]cc(C(F)(F)F)c12` [Example 104, (4-((4-(ethylamino)-5-(trifluoromethyl)-7H-pyrrolo[2,3-d]pyrimidine-2-yl)amino)-3-methoxyphenyl)(4-morpholinopiperidine-1-yl)methanone] gave a remaining binding at 1 µM [1] of 24%, a remaining binding at 1 µM [2] of 0.15% and a remaining binding at 1 µM [3] of 100%. For the same compound, the remaining binding at 1 µM [4] was 72%, the remaining binding at 1 µM [5] was 16% and the remaining binding at 1 µM [6] was 51%. For the same compound, the remaining binding at 1 µM [7] was 87%, the remaining binding at 1 µM [8] was 99% and the remaining binding at 1 µM [9] was 100%. It also gave a remaining binding at 1 µM [10] of 100%, a remaining binding at 1 µM [11] of 86% and a remaining binding at 1 µM [12] of 90%.
